Values of other authors in US7319013B2, “Serine hydroxymethyltransferase as a target for herbicides” (BASF Aktiengesellschaft, priority 2002, dated 2008).

Legend:
SHMT from CHO cells [1] = test system: SHMT from CHO cells
SHMT from CHO cells [2] = conditions: by means of photo-linkage
[3] = test system: SHMT from Euglena gracilis; conditions: millimolar concentrations
ovine SHMT = target: T1, ovine SHMT (Ovis aries, UniProt P35623); conditions: micromolar concentrations
T1 sequence (P35623 2-484 limits assumed): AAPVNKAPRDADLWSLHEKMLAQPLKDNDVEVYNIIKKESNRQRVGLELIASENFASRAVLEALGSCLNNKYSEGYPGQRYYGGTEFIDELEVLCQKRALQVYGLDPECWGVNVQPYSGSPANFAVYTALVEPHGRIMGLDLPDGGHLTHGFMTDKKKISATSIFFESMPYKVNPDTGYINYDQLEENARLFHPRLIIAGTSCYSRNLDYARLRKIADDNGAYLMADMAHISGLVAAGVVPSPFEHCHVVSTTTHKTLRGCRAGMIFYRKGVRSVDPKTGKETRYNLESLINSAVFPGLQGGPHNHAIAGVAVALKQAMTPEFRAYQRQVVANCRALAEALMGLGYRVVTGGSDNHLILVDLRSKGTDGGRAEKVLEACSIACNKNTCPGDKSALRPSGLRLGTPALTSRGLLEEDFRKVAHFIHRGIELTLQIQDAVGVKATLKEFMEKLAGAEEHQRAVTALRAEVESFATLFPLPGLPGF

Structure (SMILES) | inhibition of SHMT [3] | also measured
NC(Cn1ccc(=O)c(O)c1)C(=O)O (stereo not drawn) [mimosine] | – | inhibition of SHMT (SHMT from CHO cells [1]): does not inhibit it; binding to SHMT (SHMT from CHO cells [2]): can be bound
N[C@@H](CO)C(=O)O [serine] | can be inhibited | –
N[C@@H](CS)C(=O)O [cystein] | can be inhibited | –
NCC(=O)O [glycin] | can be inhibited | –
NOC[C@@H](N)C(=O)O [O-amino-D-serine] | – | inhibitory effect on SHMT (ovine SHMT): have an inhibitory effect
